{"source": "patent US20070128294A1", "about": "“Treatment and prevention of liver adverse conditions using gallium” (priority 2005, published 2007)", "key": {"[1]": {"test_system": "adjuvant arthritic rats (adjuvant-induced hepatomegaly)", "assay": "Adjuvant-induced acute arthritis model: hepatomegaly, liver weight and histopathology", "format": "in vivo", "excerpt": "A preclinical animal model was used to test the efficacy of oral gallium maltolate in treating hepatomegaly associated with adjuvant-induced acute arthritis. Male Lewis rats were used in the study. The study design was described in detail by Bendele et al. (1999) Toxicologic Pathology 27(1):134-142 and by Bendele (2001) J. Musculoskel. Neuron. Interact. 1(4):377-385.\nMale Lewis rats (7 per group for gallium maltolate, 4 per group for normal controls and dexamethasone-treated controls) were injected with 100 μL of Freund's complete adjuvant/lipoidal amine (FCA/LA) subcutaneously at the base of the tail on study day 0 under anesthesia. There is a rapid onset (7 d) of arthritic symptoms in this model, including ankle inflammation, liver and spleen hypertrophy, bone resorption, and mild cartilage destruction.\n(§1) Prophylactic treatment was initiated seven days prior to adjuvant injection by dosing with control vehicle or gallium maltolate (100 or 300 mg/kg gallium maltolate, containing 16 or 47 mg/kg gallium, respectively, in suspension with 1% carboxymethyl cellulose) seven days prior to adjuvant injection. Dosing was by daily oral gavage until termination. The dexamethasone-treated control animals were injected with a daily oral dose of dexamethasone (0.1 mg/kg). Body weights were measured regularly during the course of the study to track the effect of the drugs on the weight loss induced by the developing adjuvant disease, and dose volumes were adjusted accordingly. Prior to the onset of swelling, but after the establishment of systemic disease (about 7 days after adjuvant injection), caliper measurements were made of ankle joints. Ankles were measured every day until 14 days post-adjuvant injection when the rats were anesthetized and sacrificed. Serum was harvested one hour after final dosing for gallium quantitation. Hind paws, liver, and spleen were weighed, fixed, and processed for histopathologic evaluation. Adjuvant arthritic ankles were given scores of 0-5 (0=normal; 5=severe) for inflammation and bone resorption. Splenic changes of inflammation, increased extramedullary hematopoiesis, and lymphoid atrophy were scored 0-5 using criteria similar to those used for scoring of inflammation. The primary endpoint was hepatomegaly, as determined by liver weight and histopathology."}, "[2]": {"assay": "Serum gallium quantitation in the adjuvant arthritis study", "format": "in vivo, Male Lewis rats", "details": "daily oral 100 or 300 mg/kg, serum harvested one hour after final dosing", "description": "as §1, with “Adjuvant arthritic ankles were given scores of 0-5 (0=normal; 5=severe) for inflammation and bone resorption.” left out"}, "[3]": {"test_system": "Con A-treated mice (acute liver injury)", "assay": "Concanavalin A-induced acute immune-mediated hepatitis", "format": "in vivo, Balb/c male mice", "details": "150 mg/kg oral gavage for 4 days prior to Con A", "description": "Concanavalin A (Con A) is a powerful mitogen for and activator of T lymphocytes and its intravenous administration to mice initiates an acute immune-mediated hepatitis. The effect of preemptive gallium maltolate administration on the development of acute liver injury was assessed in vivo.\nLiver injury was induced by injecting 6-8 week old Balb/c male mice (weight 25 g) with Con A, 25 mg/kg in 250 μl of phosphate-buffered saline via the tail vein. The test animals were divided into three groups of 2-8 mice each: • (a) Con A treatment • (b) Vehicle (1% carboxymethyl cellulose solution in water) per oral gavage for 4 days prior to Con A treatment • (c) 150 mg/kg gallium maltolate per oral gavage for 4 days prior to Con A treatment\nFor determination of serum alanine aminotransferase (ALT) levels, blood was drawn from different groups of mice 16 hours after administering Con A and measured by a commercially available enzyme assay. […] (FIG. 4). Histological assessment of centrilobular necrosis of the liver was rated for severity on a scale of 0 to 3."}, "[4]": {"test_system": "human patient exposed to a liver-damaging agent", "assay": "Human patient pretreated before exposure to a liver-damaging agent, serum liver enzymes monitored", "format": "in vivo", "details": "oral tablet or capsule to at least 10 ng/mL serum gallium before exposure; monitored every 12 hours", "description": "A human patient, prior to exposure to a liver-damaging agent, is treated with gallium in the form of gallium maltolate combined with the appropriate standard excipients and/or fillers, in tablet or capsule form. Sufficient gallium maltolate is administered to obtain at least 10 ng/mL gallium in the patient's serum. The amount of gallium maltolate plus excipients necessary to reach this level is dependent on the formulation used and the size of the patient. The patient continues to take the oral medication in an amount to build the level of serum gallium and to maintain the level of at least 10 ng/mL serum.\nAfter a period of up to 72 hours, or when the gallium serum concentration reaches the desired level, the patient is exposed to the liver-damaging agent.\nThe serum levels of liver enzymes are monitored at the start of the gallium treatment and every 12 hours thereafter. In particular, levels of […] and SGOT are measured. […] Gallium maltolate administration is discontinued after risk of liver damage is terminated."}, "[5]": {"details": "oral 100 and 300 mg/kg/day, adjuvant arthritic rats"}}, "note": "“Also recorded” adds a separate entry of the source."}
{"smiles": "Cc1occc(=O)c1[O-].Cc1occc(=O)c1[O-].Cc1occc(=O)c1[O-].[Ga+3]", "note": "[gallium maltolate]", "values": [{"measurement": "lobular pattern of liver, histology (FIG. 3A)", "setting": "[1]; 300 mg/kg/day oral for 21 days, 100x magnification", "result": "No accentuation of the lobular pattern"}, {"measurement": "signs of toxicity", "setting": "[1]; daily oral dosing for 14 days, 100 or 300 mg/kg, Lewis rats", "result": "no signs of toxicity"}, {"measurement": "liver pathology, histopathological examination of the livers", "setting": "[1]; gallium treated versus untreated adjuvant arthritic rats", "result": "inhibited the development of liver pathology"}, {"measurement": "liver hypertrophy (adjuvant-induced hepatomegaly)", "setting": "[1]; [5]", "result": "marked reduction; also recorded: Significant dose-dependent protection"}, {"measurement": "spleen hypertrophy", "setting": "[1]; [5]", "result": "marked reduction"}, {"measurement": "serum gallium levels attained", "setting": "[2]", "result": "dose-dependent"}, {"measurement": "serum alanine aminotransferase (ALT) levels", "setting": "[3]; blood 16 hours after Con A, versus the other two test groups", "result": "greatly reduced"}, {"measurement": "centrilobular necrosis of the liver, histological assessment", "setting": "[3]; severity scale 0 to 3", "result": "No necrosis"}, {"measurement": "serum levels of liver enzymes (SDOT and SGOT)", "setting": "[4]", "result": "do not rise to any significant extent"}]}
